Numbers after ± are expanded uncertainties.
Test: mn = molality of the nth substance listed, in mol/kg
Conditions: 75 kPa, Liquid; for viscosity: Capillary tube (Ostwald / Ubbelohde) method; for speed of sound: Frequency=3 MHz, Single path-length method; for mass density: Vibrating tube method

NCCCCC(=O)O [5-aminovaleric acid] + O
Conditions | mass density [kg/m3] | speed of sound [m/s] | viscosity [mPa·s]
288.15 K, m1 = 0.1389 | 1003.29 ± 0.3 | 1481 ± 4 | 1.215 ± 0.025
288.15 K, m1 = 0.2789 | 1007.34 ± 0.3 | 1495.3 ± 4 | 1.293 ± 0.027
288.15 K, m1 = 0.4193 | 1011.22 ± 0.3 | 1509.3 ± 4 | 1.38 ± 0.029
288.15 K, m1 = 0.5604 | 1014.96 ± 0.3 | 1523 ± 4 | 1.473 ± 0.031
288.15 K, m1 = 0.7025 | 1018.54 ± 0.3 | 1536.5 ± 4 | 1.575 ± 0.033
288.15 K, m1 = 0.8448 | 1021.98 ± 0.31 | 1549.8 ± 4 | 1.685 ± 0.035
293.15 K, m1 = 0.1389 | 1002.34 ± 0.3 | 1496.8 ± 4 | 1.073 ± 0.022
293.15 K, m1 = 0.2789 | 1006.33 ± 0.3 | 1510.7 ± 4 | 1.135 ± 0.024
293.15 K, m1 = 0.4193 | 1010.16 ± 0.3 | 1524.2 ± 4 | 1.208 ± 0.025
293.15 K, m1 = 0.5604 | 1013.85 ± 0.3 | 1537.5 ± 4 | 1.289 ± 0.027
293.15 K, m1 = 0.7025 | 1017.4 ± 0.3 | 1550.4 ± 4 | 1.376 ± 0.029
293.15 K, m1 = 0.8448 | 1020.81 ± 0.31 | 1562.9 ± 4 | 1.477 ± 0.031
298.15 K, m1 = 0.1389 | 1001.15 ± 0.3 | 1510.3 ± 4 | 0.946 ± 0.02
298.15 K, m1 = 0.2789 | 1005.16 ± 0.3 | 1523.7 ± 4 | 1.003 ± 0.021
298.15 K, m1 = 0.4193 | 1009.06 ± 0.3 | 1536.7 ± 4 | 1.063 ± 0.022
298.15 K, m1 = 0.5604 | 1012.86 ± 0.3 | 1549.3 ± 4 | 1.143 ± 0.024
298.15 K, m1 = 0.7025 | 1016.56 ± 0.3 | 1561.6 ± 4 | 1.215 ± 0.025
298.15 K, m1 = 0.8448 | 1020.15 ± 0.31 | 1573.5 ± 4 | 1.301 ± 0.027
303.15 K, m1 = 0.1389 | 999.722 ± 0.3 | 1522.1 ± 4 | 0.853 ± 0.018
303.15 K, m1 = 0.2789 | 1003.72 ± 0.3 | 1534.9 ± 4 | 0.893 ± 0.019
303.15 K, m1 = 0.4193 | 1007.61 ± 0.3 | 1547.4 ± 4 | 0.95 ± 0.02
303.15 K, m1 = 0.5604 | 1011.41 ± 0.3 | 1559.5 ± 4 | 1.013 ± 0.021
303.15 K, m1 = 0.7025 | 1015.13 ± 0.3 | 1571.3 ± 4 | 1.077 ± 0.022
303.15 K, m1 = 0.8448 | 1018.76 ± 0.31 | 1582.7 ± 4 | 1.158 ± 0.024
308.15 K, m1 = 0.1389 | 998.079 ± 0.3 | 1532.3 ± 4 | 0.762 ± 0.016
308.15 K, m1 = 0.2789 | 1002.05 ± 0.3 | 1544.6 ± 4 | 0.8 ± 0.017
308.15 K, m1 = 0.4193 | 1005.91 ± 0.3 | 1556.5 ± 4 | 0.848 ± 0.018
308.15 K, m1 = 0.5604 | 1009.68 ± 0.3 | 1568.2 ± 4 | 0.9 ± 0.019
308.15 K, m1 = 0.7025 | 1013.37 ± 0.3 | 1579.4 ± 4 | 0.957 ± 0.02
308.15 K, m1 = 0.8448 | 1016.96 ± 0.31 | 1590.2 ± 4 | 1.019 ± 0.021

NCCCCCC(=O)O [6-aminohexanoic acid] + O
Conditions | mass density [kg/m3] | speed of sound [m/s] | viscosity [mPa·s]
288.15 K, m1 = 0.1386 | 1002.94 ± 0.3 | 1484.1 ± 4 | 1.237 ± 0.026
288.15 K, m1 = 0.2786 | 1006.69 ± 0.3 | 1501.7 ± 4 | 1.324 ± 0.028
288.15 K, m1 = 0.4193 | 1010.34 ± 0.3 | 1518.8 ± 4 | 1.43 ± 0.03
288.15 K, m1 = 0.5602 | 1013.86 ± 0.3 | 1535.5 ± 4 | 1.543 ± 0.032
288.15 K, m1 = 0.7027 | 1017.3 ± 0.3 | 1551.7 ± 4 | 1.676 ± 0.035
288.15 K, m1 = 0.8448 | 1020.62 ± 0.3 | 1566.7 ± 4 | 1.804 ± 0.037
288.15 K, m1 = 0.9881 | 1023.86 ± 0.3 | 1581.4 ± 4 | 1.945 ± 0.04
288.15 K, m1 = 1.132 | 1026.99 ± 0.3 | 1595.3 ± 4 | 2.103 ± 0.044
293.15 K, m1 = 0.1386 | 1001.94 ± 0.3 | 1499.7 ± 4 | 1.088 ± 0.023
293.15 K, m1 = 0.2786 | 1005.61 ± 0.3 | 1516.3 ± 4 | 1.158 ± 0.024
293.15 K, m1 = 0.4193 | 1009.17 ± 0.3 | 1532.6 ± 4 | 1.25 ± 0.026
293.15 K, m1 = 0.5602 | 1012.62 ± 0.3 | 1548.3 ± 4 | 1.344 ± 0.028
293.15 K, m1 = 0.7027 | 1016.01 ± 0.3 | 1563.8 ± 4 | 1.459 ± 0.03
293.15 K, m1 = 0.8448 | 1019.28 ± 0.3 | 1578.3 ± 4 | 1.566 ± 0.032
293.15 K, m1 = 0.9881 | 1022.48 ± 0.3 | 1592.5 ± 4 | 1.689 ± 0.035
293.15 K, m1 = 1.132 | 1025.6 ± 0.3 | 1606 ± 4 | 1.825 ± 0.038
298.15 K, m1 = 0.1386 | 1000.74 ± 0.3 | 1513 ± 4 | 0.962 ± 0.02
298.15 K, m1 = 0.2786 | 1004.36 ± 0.3 | 1529 ± 4 | 1.025 ± 0.021
298.15 K, m1 = 0.4193 | 1007.89 ± 0.3 | 1544.6 ± 4 | 1.103 ± 0.023
298.15 K, m1 = 0.5602 | 1011.3 ± 0.3 | 1559.8 ± 4 | 1.183 ± 0.025
298.15 K, m1 = 0.7027 | 1014.65 ± 0.3 | 1574.6 ± 4 | 1.277 ± 0.027
298.15 K, m1 = 0.8448 | 1017.88 ± 0.3 | 1588.6 ± 4 | 1.377 ± 0.029
298.15 K, m1 = 0.9881 | 1021.04 ± 0.3 | 1602.2 ± 4 | 1.481 ± 0.031
298.15 K, m1 = 1.132 | 1024.11 ± 0.3 | 1615.3 ± 4 | 1.59 ± 0.033
303.15 K, m1 = 0.1386 | 999.323 ± 0.3 | 1524.5 ± 4 | 0.865 ± 0.018
303.15 K, m1 = 0.2786 | 1002.91 ± 0.3 | 1539.8 ± 4 | 0.916 ± 0.019
303.15 K, m1 = 0.4193 | 1006.4 ± 0.3 | 1554.7 ± 4 | 0.984 ± 0.02
303.15 K, m1 = 0.5602 | 1009.78 ± 0.3 | 1569.1 ± 4 | 1.062 ± 0.022
303.15 K, m1 = 0.7027 | 1013.08 ± 0.3 | 1583.2 ± 4 | 1.137 ± 0.024
303.15 K, m1 = 0.8448 | 1016.26 ± 0.3 | 1596.8 ± 4 | 1.222 ± 0.025
303.15 K, m1 = 0.9881 | 1019.37 ± 0.3 | 1610 ± 4 | 1.314 ± 0.027
303.15 K, m1 = 1.132 | 1022.39 ± 0.3 | 1622.5 ± 4 | 1.423 ± 0.03
308.15 K, m1 = 0.1386 | 997.675 ± 0.3 | 1534.6 ± 4 | 0.781 ± 0.016
308.15 K, m1 = 0.2786 | 1001.24 ± 0.3 | 1549.2 ± 4 | 0.821 ± 0.017
308.15 K, m1 = 0.4193 | 1004.7 ± 0.3 | 1563.5 ± 4 | 0.881 ± 0.018
308.15 K, m1 = 0.5602 | 1008.06 ± 0.3 | 1577.4 ± 4 | 0.949 ± 0.02
308.15 K, m1 = 0.7027 | 1011.35 ± 0.3 | 1591 ± 4 | 1.02 ± 0.021
308.15 K, m1 = 0.8448 | 1014.52 ± 0.3 | 1603.9 ± 4 | 1.096 ± 0.023
308.15 K, m1 = 0.9881 | 1017.62 ± 0.3 | 1616.4 ± 4 | 1.177 ± 0.024
308.15 K, m1 = 1.132 | 1020.64 ± 0.3 | 1628.4 ± 4 | 1.267 ± 0.026

Reference: the NIST ThermoML archive (doi:10.1021/acs.jced.8b00236)
